Measured values taken from ChEMBL document CHEMBL5143537, “Quinazoline-based hydroxamic acid derivatives as dual histone methylation and deacetylation inhibitors for potential anticancer agents” (Bioorg Med Chem, 2022).
pIC50: −log10 of the molar value.

Columns and labels:
[1] = tested on: HepG2; assay: Antiproliferative activity against human HepG2 cells measured after 72 hrs by MTT assay; assay type: functional, cell-based; settings: HepG2, 72 h
[2] = tested on: HT-29; assay: Antiproliferative activity against human HT-29 cells measured after 72 hrs by MTT assay; assay type: functional, cell-based; settings: HT-29, 72 h
[3] = tested on: HeLa; assay: Antiproliferative activity against human HeLa cells measured after 72 hrs by MTT assay; assay type: functional, cell-based
[4] = tested on: K562; assay: Antiproliferative activity against human K562 cells measured after 72 hrs by MTT assay; assay type: functional, cell-based; settings: K562, 72 h
[5] = target: Histone deacetylase 1 (Homo sapiens, UniProt Q13547); assay: Inhibition of recombinant human HDAC1 expressed in baculovirus infection system using Ac-peptide-AMC as substrate preincubated for 15 mins followed by substrate addition and measured after 60 mins by fluorescence assay
[6] = Cytotoxicity against human HL7702 cells measured after 72 hrs by MTT assay; settings: HL7702 (L02) cells
[7] = target: T1, Histone-lysine N-methyltransferase EHMT1 (Homo sapiens, UniProt Q9H9B1); assay: Inhibition of GLP (unknown origin)
T1 sequence (Q9H9B1 whole entry): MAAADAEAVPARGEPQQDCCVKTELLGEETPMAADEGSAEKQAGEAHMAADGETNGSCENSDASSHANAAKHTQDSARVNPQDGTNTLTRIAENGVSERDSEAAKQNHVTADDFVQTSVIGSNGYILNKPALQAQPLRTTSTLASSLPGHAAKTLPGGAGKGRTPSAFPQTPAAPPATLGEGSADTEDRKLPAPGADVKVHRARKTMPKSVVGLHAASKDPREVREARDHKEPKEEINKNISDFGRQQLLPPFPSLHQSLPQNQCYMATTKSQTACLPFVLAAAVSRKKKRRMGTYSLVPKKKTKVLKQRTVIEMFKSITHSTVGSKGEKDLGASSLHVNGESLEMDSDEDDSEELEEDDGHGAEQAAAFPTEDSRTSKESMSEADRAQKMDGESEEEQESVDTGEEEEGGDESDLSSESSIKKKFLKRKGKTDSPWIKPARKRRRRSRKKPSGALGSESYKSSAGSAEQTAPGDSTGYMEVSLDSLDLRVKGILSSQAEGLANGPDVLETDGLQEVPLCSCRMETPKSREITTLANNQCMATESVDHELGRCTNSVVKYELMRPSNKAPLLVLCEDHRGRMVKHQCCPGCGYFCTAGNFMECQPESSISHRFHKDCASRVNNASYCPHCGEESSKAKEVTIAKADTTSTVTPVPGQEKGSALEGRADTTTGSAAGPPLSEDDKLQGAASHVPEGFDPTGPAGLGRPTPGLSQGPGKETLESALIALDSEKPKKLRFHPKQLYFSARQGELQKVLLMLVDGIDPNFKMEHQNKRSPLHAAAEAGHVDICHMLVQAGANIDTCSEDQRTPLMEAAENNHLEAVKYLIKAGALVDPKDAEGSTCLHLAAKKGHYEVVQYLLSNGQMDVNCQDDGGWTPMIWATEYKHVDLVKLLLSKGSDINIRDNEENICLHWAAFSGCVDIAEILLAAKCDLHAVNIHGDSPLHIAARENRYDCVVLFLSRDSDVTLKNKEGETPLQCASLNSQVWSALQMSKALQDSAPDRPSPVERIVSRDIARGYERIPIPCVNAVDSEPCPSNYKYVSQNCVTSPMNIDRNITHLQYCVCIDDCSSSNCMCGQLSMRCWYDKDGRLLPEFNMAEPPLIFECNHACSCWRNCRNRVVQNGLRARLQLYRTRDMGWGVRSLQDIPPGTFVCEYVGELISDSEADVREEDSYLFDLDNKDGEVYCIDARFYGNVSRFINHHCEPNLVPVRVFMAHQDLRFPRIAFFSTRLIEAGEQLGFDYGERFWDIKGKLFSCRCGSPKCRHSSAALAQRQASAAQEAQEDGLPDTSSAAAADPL

[8] = target: T2, Protein deacetylase HDAC6 (Homo sapiens, UniProt Q9UBN7); assay: Inhibition of recombinant HDAC6 (unknown origin) using Ac-peptide-AMC as substrate preincubated for 15 mins followed by substrate addition and measured after 60 mins by fluorescence assay
T2 sequence (Q9UBN7 whole entry): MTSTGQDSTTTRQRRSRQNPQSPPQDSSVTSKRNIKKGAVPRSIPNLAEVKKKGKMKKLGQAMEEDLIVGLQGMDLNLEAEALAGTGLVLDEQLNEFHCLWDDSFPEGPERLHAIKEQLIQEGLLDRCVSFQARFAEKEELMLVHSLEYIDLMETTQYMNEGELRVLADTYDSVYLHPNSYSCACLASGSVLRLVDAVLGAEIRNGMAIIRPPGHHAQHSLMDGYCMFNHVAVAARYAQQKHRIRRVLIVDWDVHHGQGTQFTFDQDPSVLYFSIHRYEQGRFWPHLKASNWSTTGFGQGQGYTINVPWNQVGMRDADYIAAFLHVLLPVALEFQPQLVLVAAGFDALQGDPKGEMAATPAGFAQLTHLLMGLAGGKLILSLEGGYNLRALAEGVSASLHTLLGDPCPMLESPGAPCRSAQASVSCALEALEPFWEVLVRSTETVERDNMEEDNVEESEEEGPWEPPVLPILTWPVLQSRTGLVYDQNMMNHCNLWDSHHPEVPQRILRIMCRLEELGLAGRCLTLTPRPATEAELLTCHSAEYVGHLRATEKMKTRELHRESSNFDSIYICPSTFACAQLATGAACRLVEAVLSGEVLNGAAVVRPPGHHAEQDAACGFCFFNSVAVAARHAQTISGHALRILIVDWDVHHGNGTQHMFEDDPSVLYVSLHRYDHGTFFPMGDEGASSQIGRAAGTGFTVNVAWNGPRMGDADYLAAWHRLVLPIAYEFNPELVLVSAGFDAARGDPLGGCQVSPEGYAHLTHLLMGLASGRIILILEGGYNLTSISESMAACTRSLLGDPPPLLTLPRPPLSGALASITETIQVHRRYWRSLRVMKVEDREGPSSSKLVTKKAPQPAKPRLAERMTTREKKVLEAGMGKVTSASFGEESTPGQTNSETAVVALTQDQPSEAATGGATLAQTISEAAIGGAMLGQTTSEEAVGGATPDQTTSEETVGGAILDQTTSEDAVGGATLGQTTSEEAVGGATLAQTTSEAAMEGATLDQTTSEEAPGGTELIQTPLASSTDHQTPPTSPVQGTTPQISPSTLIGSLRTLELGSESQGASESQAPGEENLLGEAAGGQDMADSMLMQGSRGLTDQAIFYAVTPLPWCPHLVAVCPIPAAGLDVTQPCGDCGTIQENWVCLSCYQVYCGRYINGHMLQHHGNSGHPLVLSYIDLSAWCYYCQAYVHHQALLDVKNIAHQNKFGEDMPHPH

[9] = tested on: HCT-116; assay: Antiproliferative activity against human HCT-116 cells measured after 72 hrs by MTT assay; assay type: functional, cell-based; settings: HCT-116, 72 h
[10] = tested on: MDA-MB-231; assay: Antiproliferative activity against human MDA-MB-231 cells measured after 72 hrs by MTT assay; assay type: functional, cell-based; settings: MDA-MB-231, 72 h
[11] = tested on: A-431; assay: Antiproliferative activity against human A-431 cells measured after 72 hrs by MTT assay; assay type: functional, cell-based; settings: A-431, 72 h
[12] = Half life in rat liver microsomes at 1 uM by LC-MS/MS analysis; assay type: ADME, Microsome
[13] = Intrinsic clearance in rat liver microsomes at 1 uM by LC-MS/MS analysis; assay type: ADME, Microsome; settings: read-out: CLH

Chain of Histone deacetylase 1 (Q13547 whole entry): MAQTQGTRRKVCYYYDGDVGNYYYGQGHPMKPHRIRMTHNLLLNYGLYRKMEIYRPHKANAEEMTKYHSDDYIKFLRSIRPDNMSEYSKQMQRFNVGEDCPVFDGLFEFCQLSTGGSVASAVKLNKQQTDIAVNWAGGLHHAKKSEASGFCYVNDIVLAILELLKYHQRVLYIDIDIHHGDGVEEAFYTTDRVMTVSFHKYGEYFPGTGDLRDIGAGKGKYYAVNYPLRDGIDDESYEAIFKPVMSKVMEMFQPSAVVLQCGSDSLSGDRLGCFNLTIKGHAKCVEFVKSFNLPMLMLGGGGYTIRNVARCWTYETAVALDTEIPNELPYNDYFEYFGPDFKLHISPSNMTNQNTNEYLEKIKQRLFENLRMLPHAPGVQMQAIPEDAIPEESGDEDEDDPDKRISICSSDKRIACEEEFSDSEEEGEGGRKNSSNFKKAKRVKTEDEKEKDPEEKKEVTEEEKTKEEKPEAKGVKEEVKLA

Row | Compound | pIC50 [1] | pIC50 [2] | pIC50 [3] | pIC50 [4] | pIC50 [5] | pIC50 [7] | pIC50 [8] | pIC50 [9] | pIC50 [10] | pIC50 [11] | half-life at 1 µM [12] | CLint scaled at 1 µM [13] | IC50 at 72 h [6]
1 | COc1cc2nc(NCCCCCC(=O)NO)nc(NC3CCN(Cc4ccccc4)CC3)c2cc1OC | 5.67 | 4.89 | 5.05 | 5.10 | 8.49 | 8.04 | 7.77 | 4.35 | 5.10 | 4.77 | – | – | 19.8 µM
2 | COc1cc2c(NC3CCN(C(C)C)CC3)nc(N3CCC(F)(F)CC3)nc2cc1OCCCN1CCCC1 | 5.57 | 5.87 | 5.76 | 6.04 | – | – | – | 5.30 | 5.49 | 5.47 | – | – | 3.23 µM
3 | COc1cc2nc(N3CCN(Cc4ccc(/C=C/C(=O)NO)cc4)CC3)nc(NC3CCN(Cc4ccccc4)CC3)c2cc1OC | < 4.30 | < 4.30 | < 4.30 | < 4.30 | 7.03 | 6.72 | 7.30 | < 4.30 | < 4.30 | < 4.30 | – | – | > 50 µM
4 | COc1cc2nc(NCCCCCCC(=O)NO)nc(NC3CCN(C(C)C)CC3)c2cc1OC | 5.33 | 5.38 | 4.76 | 5.28 | 8.38 | 7.96 | 7.92 | 5.43 | < 4.30 | 4.64 | – | – | 12.7 µM
5 | O=C(c1ccc(F)cc1)C1CCN(CCn2c(=O)[nH]c3ccccc3c2=O)CC1 [KETANSERIN] | – | – | – | – | – | – | – | – | – | – | 16.2 min | 153 mL/min/kg | –
6 | COc1cc2nc(N3CCN(CCCCCC(=O)NO)CC3)nc(NC3CCN(C(C)C)CC3)c2cc1OC | 4.92 | 5.10 | 4.53 | 4.99 | 7.29 | 8.80 | 7.62 | < 4.30 | < 4.30 | < 4.30 | – | – | > 50 µM

Further lines, with some results ahead:

Row | pIC50 [1] | pIC50 [2] | pIC50 [3] | pIC50 [4] | pIC50 [5] | pIC50 [7] | pIC50 [8] | pIC50 [9] | pIC50 [10] | pIC50 [11] | half-life at 1 µM [12] | CLint scaled at 1 µM [13] | Compound | IC50 at 72 h [6]
7 | 5.17 | 4.89 | 5.02 | 4.77 | 8.24 | 7.68 | 7.80 | < 4.30 | < 4.30 | < 4.30 | – | – | COc1cc2nc(NCCCCCCC(=O)NO)nc(NC3CCN(C)CC3)c2cc1OC | > 50 µM
8 | < 4.30 | 4.32 | 4.43 | < 4.30 | 8.08 | 7.01 | 6.88 | 4.59 | < 4.30 | < 4.30 | – | – | COc1cc2nc(NCCCCCC(=O)NO)nc(NC3CCN(C(C)C)CC3)c2cc1OC | > 50 µM
9 | 4.87 | 5.27 | 5.19 | 5.04 | 8.89 | 7.96 | 7.29 | 5.16 | 4.35 | 5.23 | – | – | COc1cc2nc(NCCCCCC(=O)NO)nc(NC3CCN(C)CC3)c2cc1OC | 31.7 µM
